Earlier results on one compound are cited in patent US8758823B2, “Method for obtaining non-water-soluble powders having antimicrobial activity, the powders thus obtained and the antibacterial use thereof” (Poly-Bio, priority 2009, dated 2014).

In the data set the test system is Staphylococcus aureus. The settings on record: quaternary ammonium chloride in aqueous solution; AKZO NOBEL guideline formulation.

With `CCCCCCCCCC[N+](C)(C)CCCCCCCCCC.[Cl-]` [ARQUAD 210-50, didecyl dimethyl ammonium chloride], the “concentration recommended to obtain the same result (reduction greater than 5 Log)” value was 12 to 16 ppm.
